Columns and labels:
[1] = system: heterochromatin protein 1 (HP1); assay: HP1 distribution (confocal microscopy) and expression (Western); assay type: cell-based, human
Experimental: In addition, the changes in methylation status of the Oct4 and Sox2 promoters that were accelerated by TLR3 activation were also associated with an accelerated redistribution of heterochromatin protein 1 (HP1; FIGS. 19A and 19B). HP1 that is bound to methylated H3K9 recruits the methylase Suv39h, leading to further methylation of H3K9, so as to consolidate a repressed state. The redistribution of HP1 induced by poly I:C is consistent with genome-wide epigenetic alterations induced by TLR3 activation. Histone acetylation favors an open chromatin state, maintained by proteins containing histone acetyltransferase (HAT) domains, such as p300 and CBP. NF-κB is a transcriptional effector of TLR3 activation, and interacts with CBP/p300 to positively regulate gene expression. […] This effect was mediated by TLR3, as shRNA knockdown of TLR3 or its adaptor protein TRIF1 reduced the effect of poly I:C on NF-κB activation (FIG. 20).
Heterochromatin protein-1 (HP1) is associated with the closed conformation of chromatin. […] The fact that the current work implicated TRIF signaling likely aligns with the fact that the retrovirus RNA provides adequate TLR3 signaling to trigger NF-κB, IRF3 and IFN. While TLR3 mimicked signaling from the retrovirus vector, other TLR agonists as well as agonists for NOD-like receptors, RIG-1-like receptors, cytosolic DNA sensors and C-type lectin receptors, drive a similar inflammatory response converging on NF-κB, IRF-3 and IFNβ.
(§1) Western Blotting Proteins were extracted from BJ fibroblasts by solubilizing the cells in RIPA buffer containing 1× protease inhibitor cocktail. 25 μg of total protein was loaded and resolved on SDSpolyacrylamide gels, transferred to PVDF membranes and probed with the following primary antibodies: anti-HP1α and anti-HDAC (Cell Signaling), and β-actin (Sigma, A5441). Immunoblots were developed with enhanced chemiluminescence reagents (Amersham).

[2] = system: HDAC; assay: HDAC expression (cDNA profiling, Western); assay type: cell-based, human
Description: Histone acetylation status influences the folding and functional state of the chromatin and modulates the accessibility of DNA to the transcriptional machinery for gene expression. Histone de-acetylation is generally associated with a closed chromatin state, and inhibitors of histone de-acetylase (HDAC) such as valproic acid are employed to enhance nuclear reprogramming. […] The downregulation of HDAC1 expression by poly I:C was confirmed by Western analysis (FIG. 17).
Gene Expression and Microarray Analyses RNA was isolated with the RNeasy kit. First-strand cDNA was primed with oligo(dT) primers and qPCR was performed with primer sets from Applied Biosystems. RNA probes were prepared and hybridized to Illumina HumanHT-12 v4 Expression BeadChip microarrays.
as §1

[3] = system: human foreskin fibroblasts (BJ); assay: Transdifferentiation of human fibroblasts to endothelial cells (FACS); assay type: cell-based; settings: Poly I:C 30 ng/ml
Experimental: FIG. 21: Direct reprogramming of human fibroblasts to functional endothelial cells via innate immunity activation and microenvironmental cues: (A) Protocol for direct reprogramming of human BJ fibroblasts to endothelial cells. The figure describes the time course and sequential treatments of different medias: Human fibroblasts were treated with Poly I:C (30 ng/ml) for 7 days in differentiation medium I containing DMEM/FBS and 7.5% knockout serum replacement (KSR). Following 7 days, the medium was changed to differentiation medium II containing DMEM/FBS and 10% KSR containing 20 ng/ml BMP4, 50 ng/ml VEGF and 20 ng/ml bFGF. After another 7 days, the medium was replaced with endothelial medium (EGM2) containing 50 ng/ml VEGF, 20 ng/ml bFGF and 0.1 mM 8-Br-cAMP for another 14 days. The medium was changed every 2-3 days. […] (B) Fluorescent activated cell sorting (FACs) plot of data obtained using CD31+ antibody to quantitate iECs. […]
Innate immunity (TLR3 signaling) enables efficient transdifferentiation of fibroblasts to ECs: To determine whether TLR3 signaling was necessary for efficient transdifferentiation of human fibroblasts, we assessed direct differentiation in BJ fibroblasts previously treated with scrambled shRNA or shRNA to knockdown (KD) the expression of TLR3. […]

Polyinosinicpolycytidylic acid [Poly I:C]
distribution of HP1 ([1]; co-administered with CPP-SOX2): marked changes in its distribution | expression of HP-1α (immunoblot) ([1]; day 2 to day 6): unaffected | distribution of HP1 ([1]; in the absence of the CPP): no observable redistribution | expression of a suite of HDAC genes ([2]; CPP treated human fibroblasts): downregulated | HDAC 1 protein expression (immunoblot) ([2]; day 2 to day 6): early (day 2) and sustained (to day 6) inhibition | transdifferentiation of fibroblasts to iECs [3]: significantly enhanced | cells expressed CD31 ([3]; 28 days of differentiation, FACS, relative to the vehicle control): Approximately 2%

Source: US20130202649A1, “ACTIVATION OF INNATE IMMUNITY FOR NUCLEAR REPROGRAMMING OF SOMATIC CELLS” (The Board of Trustees of the Leland Stanford Junior …, priority 2012, published 2013)
